Reference: patent US11672803B2, “Use of inhibitors of Brutons tyrosine kinase (Btk)” (priority 2010, dated 2023)

How the values were obtained:
individuals with DLBCL = experiment: Absolute lymphocyte count vs cycle day in individuals with DLBCL; type: in vivo, human; conditions: PD individuals, FIG. 11
Method: Patient 38011 was treated on schedule of 4 weeks on treatment followed by one week off. Thus, day 1 of each cycle follows one week off drug for this patient. Patients 38008 and 324001 were treated with continuous daily doses.
All Patients were treated on schedule of 4 weeks on treatment followed by one week off. Thus, day 1 of each cycle follows one week off drug for these patients. […] Patient 32002 received only one cycle of treatment.

[1] = test system: individuals with mantle cell lymphoma; experiment: Absolute lymphocyte count vs cycle day in individuals with mantle cell lymphoma; type: in vivo, human
Method: Patients 32006, 38003, and 38004 were treated on schedule of 4 weeks on treatment followed by one week off. Thus, day 1 of each cycle follows one week off drug for these patients. The other patients were treated with continuous daily dosing.

DoHH2 cells = experiment: Alamar blue assay in DoHH2 cells; type: cell-based; conditions: DLBCL cell line from a transformed follicular lymphoma patient
Source text: DOHH2 is a DLBCL (diffuse large B-cell lymphoma) cell line, from a transformed follicular lymphoma patient.
Assay was an alamar blue assay.

[2] = test system: individuals with follicular lymphoma; experiment: Absolute lymphocyte count / B cell mobilization vs cycle day in individuals with follicular lymphoma; type: in vivo, human
Method: All Patients (except Pt 32009) were treated on schedule of 4 weeks on treatment followed by one week off. Thus, day 1 of each cycle follows one week off drug for these patients.
All Patients were treated on schedule of 4 weeks on treatment followed by one week off. Thus, day 1 of each cycle follows one week off drug for these patients.
All Patients except 38010 were treated on schedule of 4 weeks on treatment followed by one week off. Thus, day 1 of each cycle follows one week off drug for these patients.

C=CC(=O)N1CCC[C@@H](n2nc(-c3ccc(Oc4ccccc4)cc3)c3c(N)ncnc32)C1 [Btk inhibitor, (R)-1-(3-(4-amino-3-(4-phenoxyphenyl)-1H-pyrazolo[3,4-d]pyrimidin-1-yl)piperidin-1-yl)prop-2-en-1-one]
Lymphocyte mobilization (ALC) (individuals with DLBCL): lack of mobilization for 3 of the 4 patients
Lymphocyte mobilization (ALC) ([1]; patient with initial PD (32014), FIG. 12): failed to show mobilization
Lymphocyte mobilization (ALC) ([1]; responding patients, FIG. 13): all responding patients showed some degree of mobilization
Sensitivity of DOHH2 cell line (DoHH2 cells): moderately sensitive
B cell fraction change by cycle ([2]; Patient 32007, Cohort 4, follicular lymphoma grade 3, regressed from SD to CR, FIG. 14): characteristic cyclic increases
Lymphocyte mobilization (ALC) ([2]; follicular lymphoma, PD individuals, FIG. 9): lack of mobilization
Absolute lymphocyte count (ALC) change by cycle ([2]; follicular lymphoma, complete or partial response (CR/PR), 4 weeks on, 1 week off, FIG. 7): increases of ALC during most cycles of most patients
